In patent US20240124417A1, “COMPOUNDS USEFUL AS IMMUNOMODULATORS” (Bristol-Myers Squibb Company, priority 2019, published 2024):
pIC50: −log10 of the molar value.

Biological target: T1, PD-1/PD-L1 (Homo sapiens, UniProt Q9NZQ7)
T1 construct: TVMV protease site linker (C); made in house; host or cells: HEK293T cells
Assay: PD-1/PD-L1 Homogenous Time-Resolved Fluorescence (HTRF) binding assay
Conditions: PD-L1-His 10 nM, PD-1-Ig 20 nM
Outline: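 Inhibitors pre-incubated 15 min with PD-L1-His extracellular domain (10 nM final) in dPBS with 0.1% BSA and 0.05% Tween-20, then PD-1-Ig (20 nM final) added for a further 15 min. Read-out by HTRF with europium cryptate anti-Ig (1 nM) and APC anti-His (20 nM). Related pairs: PD-1-Ig/PD-L2-His (20/5 nM), CD80-His/PD-L1-Ig (100/10 nM).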

T1 sequence (Q9NZQ7 18-239): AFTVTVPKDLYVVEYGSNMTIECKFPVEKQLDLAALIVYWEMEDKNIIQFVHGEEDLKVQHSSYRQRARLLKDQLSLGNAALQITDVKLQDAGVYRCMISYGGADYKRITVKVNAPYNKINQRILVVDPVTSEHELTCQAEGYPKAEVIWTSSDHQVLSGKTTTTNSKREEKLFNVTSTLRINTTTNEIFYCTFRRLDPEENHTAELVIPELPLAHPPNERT

| pIC50 | SMILES |
| --- | --- |
| 8.70 | Cc1c(COc2cc(OCc3cncc(C#N)c3)c(CNCc3cc[nH]n3)cc2Cl)cccc1-c1cccc(OCC2CCCN(C)C2)c1Cl (stereo not drawn) [Example 2588, 5-((2-((((1H-pyrazol-3-yl)methyl)amino)methyl)-4-chloro-5-((2′-chloro-2-methyl-3′-((1-methylpiperidin-3-yl)methoxy)-[1,1′-biphenyl]-3-yl)methoxy)phenoxy)methyl)nicotinonitrile] |
| 8.60 | Cc1c(COc2cc(OCc3cncc(C#N)c3)c(CNCc3cnco3)cc2Cl)cccc1-c1cccc(OCCCN2CC[C@@H](O)C2)c1C [Example 2547, (R)-5-((4-chloro-5-((3′-(3-(3-hydroxypyrrolidin-1-yl)propoxy)-2,2′-dimethyl-[1,1′-biphenyl]-3-yl)methoxy)-2-(((oxazol-5-ylmethyl)amino)methyl)phenoxy)methyl)nicotinonitrile] |
| 8.42 | Cc1c(COc2cc(OCc3cncc(C#N)c3)c(CN3CCc4[nH]cnc4C3)cc2Cl)cccc1-c1cccc(OCCCN2CC[C@@H](O)C2)c1C [Example 2515, (R)-5-((4-chloro-5-((3′-(3-(3-hydroxypyrrolidin-1-yl)propoxy)-2,2′-dimethyl-[1,1′-biphenyl]-3-yl)methoxy)-2-((1,4,6,7-tetrahydro-5H-imidazo[4,5-c]pyridin-5-yl)methyl)phenoxy)methyl)nicotinonitrile] |
| 8.39 | Cc1c(COc2cc(OCc3cncc(C#N)c3)c(CN(C)Cc3ccncc3)cc2Cl)cccc1-c1cccc(OCCCN2CC[C@@H](O)C2)c1C [Example 2029, (R)-5-((4-chloro-5-((3′-(3-(3-hydroxypyrrolidin-1-yl)propoxy)-2,2′-dimethyl-[1,1′-biphenyl]-3-yl)methoxy)-2-((methyl(pyridin-4-ylmethyl)amino)methyl)phenoxy)methyl)nicotinonitrile] |
| 8.74 | Cc1c(COc2cc(OCc3cncc(C#N)c3)c(CN(C)Cc3csc(N)n3)cc2Cl)cccc1-c1cccc(OCC2CCCN(C)C2)c1Cl (stereo not drawn) [Example 2617, 5-((2-((((2-aminothiazol-4-yl)methyl)(methyl)amino)methyl)-4-chloro-5-((2′-chloro-2-methyl-3′-((1-methylpiperidin-3-yl)methoxy)-[1,1′-biphenyl]-3-yl)methoxy)phenoxy)methyl)nicotinonitrile] |
| 7.36 | Cc1c(COc2cc(OCc3cncc(C#N)c3)c(CNCc3cc(-c4ccccc4)on3)cc2Cl)cccc1-c1cccc(OCCCN2CC[C@@H](O)C2)c1C [Example 2538, (R)-5-((4-chloro-5-((3′-(3-(3-hydroxypyrrolidin-1-yl)propoxy)-2,2′-dimethyl-[1,1′-biphenyl]-3-yl)methoxy)-2-((((5-phenylisoxazol-3-yl)methyl)amino)methyl)phenoxy)methyl)nicotinonitrile] |
| 8.57 | Cc1c(COc2cc(OCc3cncc(C#N)c3)c(CN(C)C3CCc4[nH]ncc4C3)cc2Cl)cccc1-c1cccc(OCCCN2CC[C@@H](O)C2)c1C (stereo partly drawn) [Example 2564, 5-((4-chloro-5-((3′-(3-((R)-3-hydroxypyrrolidin-1-yl)propoxy)-2,2′-dimethyl-[1,1′-biphenyl]-3-yl)methoxy)-2-((methyl(4,5,6,7-tetrahydro-1H-indazol-5-yl)amino)methyl)phenoxy)methyl)nicotinonitrile] |
| 8.77 | Cc1c(COc2cc(OCc3cncnc3)c(CNCc3ncc[nH]3)cc2Cl)cccc1-c1cccc(OCCCN2CC[C@@H](O)C2)c1C [Example 2050, (R)-1-(3-((3′-((4-((((1H-imidazol-2-yl)methyl)amino)methyl)-2-chloro-5-(pyrimidin-5-ylmethoxy)phenoxy)methyl)-2,2′-dimethyl-[1,1′-biphenyl]-3-yl)oxy)propyl)pyrrolidin-3-ol] |
| 8.43 | CC(=O)NC1CCN(CCCOc2cccc(-c3cccc(COc4cc(OCc5cncc(C#N)c5)c(CN5CCCC(c6ncc[nH]6)C5)cc4Cl)c3C)c2C)CC1 (stereo not drawn) [Example 1038, N-(1-(3-((3′-((4-((3-(1H-Imidazol-2-yl)piperidin-1-yl)methyl)-2-chloro-5-((5-cyano-pyridin-3-yl)methoxy)phenoxy)methyl)-2,2′-dimethyl-[1,1′-biphenyl]-3-yl)oxy)propyl)-piperidin-4-yl)acetamide] |
| 8.02 | Cc1c(COc2cc(OCc3cncc(C#N)c3)c(CN(C)Cc3nn(C)c4ccccc34)cc2Cl)cccc1-c1cccc(OCCCN2CC[C@@H](O)C2)c1C [Example 2562, (R)-5-((4-chloro-5-((3′-(3-(3-hydroxypyrrolidin-1-yl)propoxy)-2,2′-dimethyl-[1,1′-biphenyl]-3-yl)methoxy)-2-((methyl((1-methyl-1H-indazol-3-yl)methyl)amino)methyl)phenoxy)methyl)nicotinonitrile] |
| 8.68 | CC(=O)NC1CCN(CCCOc2cccc(-c3cccc(COc4cc(OCc5cncc(C#N)c5)c(CN5CCCC5c5nnn[nH]5)cc4Cl)c3C)c2C)CC1 (stereo not drawn) [Example 1051, N-(1-(3-((3′-((4-((2-(1H-Tetrazol-5-yl)pyrrolidin-1-yl)methyl)-2-chloro-5-((5-cyano-pyridin-3-yl)methoxy)phenoxy)methyl)-2,2′-dimethyl-[1,1′-biphenyl]-3-yl)oxy)propyl)-piperidin-4-yl)acetamide] |
| 9.22 | Cc1c(COc2cc(OCc3cncc(C#N)c3)c(CNC3CCc4[nH]ncc4C3)cc2Cl)cccc1-c1cccc(OCC2CCCN(C)C2)c1Cl (stereo not drawn) [Example 2601, 5-((4-chloro-5-((2′-chloro-2-methyl-3′-((1-methylpiperidin-3-yl)methoxy)-[1,1′-biphenyl]-3-yl)methoxy)-2-(((4,5,6,7-tetrahydro-1H-indazol-5-yl)amino)methyl)phenoxy)methyl)nicotinonitrile] |
| 8.41 | Cc1c(COc2cc(OCc3cnccn3)c(CNCc3cccnn3)cc2Cl)cccc1-c1cccc(OCC2CCCN(C)C2)c1Cl (stereo not drawn) [Example 2058, N-(5-chloro-4-((2′-chloro-2-methyl-3′-((1-methylpiperidin-3-yl)methoxy)-[1,1′-biphenyl]-3-yl)methoxy)-2-(pyrazin-2-ylmethoxy)benzyl)-1-(pyridazin-3-yl)methanamine] |
| 8.44 | Cc1c(COc2cc(OCc3cncc(C#N)c3)c(CN3CCc4c(ncn4C)C3)cc2Cl)cccc1-c1cccc(OCC2CCCN(C)C2)c1Cl (stereo not drawn) [Example 2592, 5-((4-chloro-5-((2′-chloro-2-methyl-3′-((1-methylpiperidin-3-yl)methoxy)-[1,1′-biphenyl]-3-yl)methoxy)-2-((1-methyl-1,4,6,7-tetrahydro-5H-imidazo[4,5-c]pyridin-5-yl)methyl)phenoxy)methyl)nicotinonitrile] |
| 8.72 | Cc1c(COc2cc(OCc3cncc(C#N)c3)c(CNCc3ccnc(C(N)=O)n3)cc2Cl)cccc1-c1cccc(OCCCN2CC[C@@H](O)C2)c1C [Example 2041, (R)-4-(((5-chloro-2-((5-cyanopyridin-3-yl)methoxy)-4-((3′-(3-(3-hydroxypyrrolidin-1-yl)propoxy)-2,2′-dimethyl-[1,1′-biphenyl]-3-yl)methoxy)benzyl)amino)methyl)pyrimidine-2-carboxamide] |
| 8.51 | Cc1c(COc2cc(OCc3cncc(C#N)c3)c(CNCc3nnc4ccc(C(F)(F)F)cn34)cc2Cl)cccc1-c1cccc(OCC2CCCN(C)C2)c1Cl (stereo not drawn) [Example 2619, 5-((4-chloro-5-((2′-chloro-2-methyl-3′-((1-methylpiperidin-3-yl)methoxy)-[1,1′-biphenyl]-3-yl)methoxy)-2-((((6-(trifluoromethyl)-[1,2,4]triazolo[4,3-a]pyridin-3-yl)methyl)amino)methyl)phenoxy)methyl)nicotinonitrile] |
| 8.26 | Cc1c(COc2cc(OCc3cncc(C#N)c3)c(CNCc3cn[nH]c3)cc2Cl)cccc1-c1cccc(OCCCN2CC[C@@H](O)C2)c1C [Example 2524, (R)-5-((2-((((1H-pyrazol-4-yl)methyl)amino)methyl)-4-chloro-5-((3′-(3-(3-hydroxypyrrolidin-1-yl)propoxy)-2,2′-dimethyl-[1,1′-biphenyl]-3-yl)methoxy)phenoxy)methyl)nicotinonitrile] |
| 8.10 | Cc1c(COc2cc(OCc3cncc(C#N)c3)c(CN3CCc4cn[nH]c4C3)cc2Cl)cccc1-c1cccc(OCC2CCCN(C)C2)c1Cl (stereo not drawn) [Example 2589, 5-((4-chloro-5-((2′-chloro-2-methyl-3′-((1-methylpiperidin-3-yl)methoxy)-[1,1′-biphenyl]-3-yl)methoxy)-2-((1,4,5,7-tetrahydro-6H-pyrazolo[3,4-c]pyridin-6-yl)methyl)phenoxy)methyl)nicotinonitrile] |
| 8.14 | Cc1c(COc2cc(OCc3cncc(C#N)c3)c(CNCc3ncc(-c4ccccc4)o3)cc2Cl)cccc1-c1cccc(OCC2CCCN(C)C2)c1Cl (stereo not drawn) [Example 2612, 5-((4-chloro-5-((2′-chloro-2-methyl-3′-((1-methylpiperidin-3-yl)methoxy)-[1,1′-biphenyl]-3-yl)methoxy)-2-((((5-phenyloxazol-2-yl)methyl)amino)methyl)phenoxy)methyl)nicotinonitrile] |
| 9.10 | Cc1c(COc2cc(OCc3cncc(C#N)c3)c(CNCc3cncnc3)cc2Cl)cccc1-c1cccc(OCCCN2CC[C@@H](O)C2)c1C [Example 2022, (R)-5-((4-chloro-5-((3′-(3-(3-hydroxypyrrolidin-1-yl)propoxy)-2,2′-dimethyl-[1,1′-biphenyl]-3-yl)methoxy)-2-(((pyrimidin-5-ylmethyl)amino)methyl)phenoxy)methyl)nicotinonitrile] |
| 7.52 | CCc1csc(CN(C)Cc2cc(Cl)c(OCc3cccc(-c4cccc(OCCCN5CC[C@@H](O)C5)c4C)c3C)cc2OCc2cncc(C#N)c2)n1 [Example 2553, (R)-5-((4-chloro-2-((((4-ethylthiazol-2-yl)methyl)(methyl)amino)methyl)-5-((3′-(3-(3-hydroxypyrrolidin-1-yl)propoxy)-2,2′-dimethyl-[1,1′-biphenyl]-3-yl)methoxy)phenoxy)methyl)nicotinonitrile] |
